Test results taken from patent US12215123B2, “Cordycepin-based derivatized compound with anti-tumor effect” (NANJING TECH UNIVERSITY, priority 2022, dated 2025).

Experiments:
IDB ovarian cancer cells = assay: Mouse transplanted ovarian cancer model; assay type: in vivo, C57BL/6j nude mice; settings: ovarian cancer transplanted mice, 15 days, 500 ug/time/animal intragastric
Protocol: (§1) The feeding of the mouse model in the drug evaluation follows that: mice are fed and treated in a laminar flow cabinet, with 5 nude mice in each cage, drinking water and feedstuffs are added once every 3 days, and paddings are replaced once a week; a number of mice kept in each cage is no more than 5, the mice in separate cages are kept in groups as far as possible, and the mice should not be kept in a single cage; the animal management must conform to the relevant national standards on animal feeding management, and the behavioral needs of animals should be concerned at the same time to avoid unnecessary stress; the normal physiological and behavioral needs of animals, such as defecation, urination, constant body temperature maintenance, normal activities, posture adjustment and reproduction are met; good ventilation and dry animals are kept; the animals can access to drinking water and food at will, and supplementation, replacement and cleaning operations are easily carried out; a solid and safe environment is provided to avoid accidents of animals, such as escaping or limb trapping in a gap; the animals are avoided from being damaged by sharp edges or protrusions; and the animals are not disturbed during observation.
A mouse transplanted ovarian cancer model was established and a drug was evaluated. […]

MC-38 colon cancer cells = assay: Mouse transplanted colon cancer model; assay type: in vivo, C57BL/6j nude mice; settings: MC-38 transplanted mice, 28 days, 500 ug/time/animal intragastric (compound daily, antibody every 4 days); control 1,300 mm^3
Protocol: as §1
A mouse transplanted colon cancer model was established and a drug was evaluated. […]

Row | SMILES | tumor size reduced by (times) versus control (IDB ovarian cancer cells) | tumor size (MC-38 colon cancer cells) [mm^3]
1 | CC(C)OC(=O)C(C)NP(=O)(COC[C@@H]1CC(O)[C@H](n2cnc3c(NC(=O)c4ccncc4)ncnc32)O1)Oc1ccccc1 (some centres unmarked) [Compound 24, isopropyl((((4-hydroxy-5-(6-(isonicotinamide)-9H-purin-9-yl)tetrahydrofuran-2-yl)methoxy)methyl)(phenoxy)phosphoryl)alanine ester] | about 2 times | –
2 | Nc1ncnc2c1ncn2[C@@H]1O[C@H](CO)C[C@H]1O [Cordycepin, 3′-deoxyadenosine] | – | 730
